Measured values reported in patent publication US9738634B2, “Heterocyclic amide compound and herbicide” (SYNGENTA PARTICIPATIONS AG, priority 2013, dated 2017).

Experiments:
Assay type in all cases: in vivo
directly sown rice [1] = assay: Test Example 4: foliar treatment, effect on crop; b: directly sown rice; conditions: treatment dosage 315 g/ha
Experimental: (§1) Testing of Weedkilling Efficacy by Foliar Treatment
(§2) Sterilized diluvial soil was introduced into 21 cm long, 13 cm wide, 7 cm deep plastic boxes, and seeds of crabgrass, green foxtail, barnyard grass, wild oat, black-grass, Italian ryegrass, common wind-grass, Indian mallow, redroot pigweed, fig-leafed goosefoot, chickweed, catchweed, birds-eye speedwell, corn, soybean, rice, wheat, beet and rapeseed were each spot-sown, and covered with about 1.5 cm of soil, then the plants were grown in a greenhouse at 25 to 30° C.
(§3) After they had grown for 14 days, emulsions of compounds of the present invention prepared according to compounding example 2 were diluted with water to give the specified dosages, and applied uniformly onto the stem and leaf parts with a small sprayer. 3 weeks after the pesticide treatment the effect on each type of plant was investigated on the basis of the assessment criteria of test example 1.
(§4) A: barnyard grass, B: bulrush, C: oval-leafed pondweed, D: crabgrass, E: green foxtail, F: barnyard grass, G: wild oat, H: black-grass, I: Italian ryegrass, J: common wind-grass, K: Indian mallow, L: redroot pigweed, M: fig-leafed goosefoot, N: chickweed, O: catchweed, p: birds-eye speedwell, a: transplanted rice, b: directly sown rice, c: corn, d: soybean, e: wheat, f: beet, g: rapeseed
(§5) Further, pesticide dosage (g/ha) indicates the concentration regulated such that treatment was with only the stated number of grams (g), when calculated per hectare (ha).

black-grass [2] = assay: Test Example 4: weedkilling efficacy by foliar treatment; H: black-grass; conditions: treatment dosage 315 g/ha
Experimental: as §1, §2, §3, §4, §5

catchweed = assay: Test Example 4: weedkilling efficacy by foliar treatment; O: catchweed; conditions: treatment dosage 315 g/ha
Experimental: as §1, §2, §3, §4, §5

birds-eye speedwell [3] = assay: Test Example 4: weedkilling efficacy by foliar treatment; p: birds-eye speedwell; conditions: treatment dosage 315 g/ha
Experimental: as §1, §2, §3, §4, §5

wheat [4] = assay: Test Example 3: soil treatment, effect on crop; e: wheat; conditions: treatment dosage 315 g/ha
Outline: (§6)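 Crop and weed responses were judged three weeks after a uniform surface spray of the water-diluted emulsion at the given g/ha rate. Seeds sat beneath about 1.5 cm of sterilized diluvial soil, and boxes stood in a greenhouse at 25 to 30° C.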

redroot pigweed [5] = assay: Test Example 3: weedkilling efficacy through soil treatment; L: redroot pigweed; conditions: treatment dosage 315 g/ha
Outline: as §6

soybean [6] = assay: Test Example 4: foliar treatment, effect on crop; d: soybean; conditions: treatment dosage 315 g/ha
Experimental: as §1, §2, §3, §4, §5

Italian ryegrass [7] = assay: Test Example 4: weedkilling efficacy by foliar treatment; I: Italian ryegrass; conditions: treatment dosage 315 g/ha
Experimental: as §1, §2, §3, §4, §5

bulrush [8] = assay: Test Example 1: weedkilling efficacy, preemergent weed treatment in the submerged state; B: bulrush; conditions: treatment dosage 252 g/ha
Outline: (§7)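 Pre-emergence paddy test: weed seeds sown in submerged alluvial soil (4 cm water), 2.5-leaf rice transplanted, water-diluted emulsion applied to water surface at sowing at stated g/ha. Scored at 3 weeks, greenhouse 25–30 °C.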

beet [9] = assay: Test Example 3: soil treatment, effect on crop; f: beet; conditions: treatment dosage 315 g/ha
Outline: as §6

crabgrass [10] = assay: Test Example 4: weedkilling efficacy by foliar treatment; D: crabgrass; conditions: treatment dosage 315 g/ha
Experimental: as §1, §2, §3, §4, §5

birds-eye speedwell [11] = assay: Test Example 3: weedkilling efficacy through soil treatment; p: birds-eye speedwell; conditions: treatment dosage 315 g/ha
Outline: as §6

oval-leafed pondweed [12] = assay: Test Example 1: weedkilling efficacy, preemergent weed treatment in the submerged state; C: oval-leafed pondweed; conditions: treatment dosage 252 g/ha
Outline: as §7

black-grass [13] = assay: Test Example 3: weedkilling efficacy through soil treatment; H: black-grass; conditions: treatment dosage 315 g/ha
Outline: as §6

barnyard grass [14] = assay: Test Example 2: weedkilling efficacy, growth period weed treatment in the submerged state; A: barnyard grass; conditions: treatment dosage 252 g/ha
Outline: (§8)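 Seedlings at 1-2 leaves in 4 cm-deep submerged alluvial soil received emulsion formulations on the water surface, dosed per hectare; effects were judged 3 weeks on.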

bulrush [15] = assay: Test Example 2: weedkilling efficacy, growth period weed treatment in the submerged state; B: bulrush; conditions: treatment dosage 252 g/ha
Outline: as §8

green foxtail [16] = assay: Test Example 4: weedkilling efficacy by foliar treatment; E: green foxtail; conditions: treatment dosage 315 g/ha
Experimental: as §1, §2, §3, §4, §5

corn [17] = assay: Test Example 4: foliar treatment, effect on crop; c: corn; conditions: treatment dosage 315 g/ha
Experimental: as §1, §2, §3, §4, §5

green foxtail [18] = assay: Test Example 3: weedkilling efficacy through soil treatment; E: green foxtail; conditions: treatment dosage 315 g/ha
Outline: as §6

fig-leafed goosefoot [19] = assay: Test Example 3: weedkilling efficacy through soil treatment; M: fig-leafed goosefoot; conditions: treatment dosage 315 g/ha
Outline: as §6

chickweed [20] = assay: Test Example 3: weedkilling efficacy through soil treatment; N: chickweed; conditions: treatment dosage 315 g/ha
Outline: as §6

redroot pigweed [21] = assay: Test Example 4: weedkilling efficacy by foliar treatment; L: redroot pigweed; conditions: treatment dosage 315 g/ha
Experimental: as §1, §2, §3, §4, §5

Italian ryegrass [22] = assay: Test Example 3: weedkilling efficacy through soil treatment; I: Italian ryegrass; conditions: treatment dosage 315 g/ha
Outline: as §6

Indian mallow [23] = assay: Test Example 4: weedkilling efficacy by foliar treatment; K: Indian mallow; conditions: treatment dosage 315 g/ha
Experimental: as §1, §2, §3, §4, §5

chickweed [24] = assay: Test Example 4: weedkilling efficacy by foliar treatment; N: chickweed; conditions: treatment dosage 315 g/ha
Experimental: as §1, §2, §3, §4, §5

beet [25] = assay: Test Example 4: foliar treatment, effect on crop; f: beet; conditions: treatment dosage 315 g/ha
Experimental: as §1, §2, §3, §4, §5

oval-leafed pondweed [26] = assay: Test Example 2: weedkilling efficacy, growth period weed treatment in the submerged state; C: oval-leafed pondweed; conditions: treatment dosage 252 g/ha
Outline: as §8

crabgrass [27] = assay: Test Example 3: weedkilling efficacy through soil treatment; D: crabgrass; conditions: treatment dosage 315 g/ha
Outline: as §6

soybean [28] = assay: Test Example 3: soil treatment, effect on crop; d: soybean; conditions: treatment dosage 315 g/ha
Outline: as §6

directly sown rice [29] = assay: Test Example 3: soil treatment, effect on crop; b: directly sown rice; conditions: treatment dosage 315 g/ha
Outline: as §6

barnyard grass [30] = assay: Test Example 1: weedkilling efficacy, preemergent weed treatment in the submerged state; A: barnyard grass; conditions: treatment dosage 252 g/ha
Outline: as §7

Indian mallow [31] = assay: Test Example 3: weedkilling efficacy through soil treatment; K: Indian mallow; conditions: treatment dosage 315 g/ha
Outline: as §6

wheat [32] = assay: Test Example 4: foliar treatment, effect on crop; e: wheat; conditions: treatment dosage 315 g/ha
Experimental: as §1, §2, §3, §4, §5

transplanted rice = assay: Test Example 1: preemergent weed treatment in the submerged state, effect on crop; a: transplanted rice; conditions: treatment dosage 252 g/ha
Outline: as §7

fig-leafed goosefoot [33] = assay: Test Example 4: weedkilling efficacy by foliar treatment; M: fig-leafed goosefoot; conditions: treatment dosage 315 g/ha
Experimental: as §1, §2, §3, §4, §5

corn [34] = assay: Test Example 3: soil treatment, effect on crop; c: corn; conditions: treatment dosage 315 g/ha
Outline: as §6

| SMILES | b (directly sown rice) effect on crop grade (directly sown rice [1]) | H (black-grass) weedkilling efficacy grade (black-grass [2]) | O (catchweed) weedkilling efficacy grade (catchweed) | P (birds-eye speedwell) weedkilling efficacy grade (birds-eye speedwell [3]) | e (wheat) effect on crop grade (wheat [4]) | L (redroot pigweed) weedkilling efficacy grade (redroot pigweed [5]) | d (soybean) effect on crop grade (soybean [6]) | I (Italian ryegrass) weedkilling efficacy grade (Italian ryegrass [7]) | B (bulrush) weedkilling efficacy grade (bulrush [8]) | f (beet) effect on crop grade (beet [9]) | D (crabgrass) weedkilling efficacy grade (crabgrass [10]) | P (birds-eye speedwell) weedkilling efficacy grade (birds-eye speedwell [11]) | C (oval-leafed pondweed) weedkilling efficacy grade (oval-leafed pondweed [12]) | H (black-grass) weedkilling efficacy grade (black-grass [13]) | A (barnyard grass) weedkilling efficacy grade (barnyard grass [14]) | B (bulrush) weedkilling efficacy grade (bulrush [15]) | E (green foxtail) weedkilling efficacy grade (green foxtail [16]) | c (corn) effect on crop grade (corn [17]) | E (green foxtail) weedkilling efficacy grade (green foxtail [18]) | M (fig-leafed goosefoot) weedkilling efficacy grade (fig-leafed goosefoot [19]) | further results |
| --- | --- | --- | --- | --- | --- | --- | --- | --- | --- | --- | --- | --- | --- | --- | --- | --- | --- | --- | --- | --- | --- |
| CC1=C(c2ccc(Cl)s2)C(=O)N(C(C)(C)C(=O)Nc2cccc(Cl)n2)CO1 [B-2-02] | 4 (weed kill ratio 70% or more, less than 90%) | 4 (weed kill ratio 70% or more, less than 90%) | 0 (weed kill ratio 5% or less (practically no effect)) | 1 (weed kill ratio 5% or more, less than 20%) | 3 (weed kill ratio 40% or more, less than 70%) | 3 (weed kill ratio 40% or more, less than 70%) | 0 (weed kill ratio 5% or less (practically no effect)) | 3 (weed kill ratio 40% or more, less than 70%) | 5 (weed kill ratio 90% or more, (practically complete withering)) | 0 (weed kill ratio 5% or less (practically no effect)) | 4 (weed kill ratio 70% or more, less than 90%) | 2 (weed kill ratio 20% or more, less than 40%) | 5 (weed kill ratio 90% or more, (practically complete withering)) | 5 (weed kill ratio 90% or more, (practically complete withering)) | 5 (weed kill ratio 90% or more, (practically complete withering)) | 5 (weed kill ratio 90% or more, (practically complete withering)) | 3 (weed kill ratio 40% or more, less than 70%) | 0 (weed kill ratio 5% or less (practically no effect)) | 3 (weed kill ratio 40% or more, less than 70%) | 0 (weed kill ratio 5% or less (practically no effect)) | N (chickweed) weedkilling efficacy grade (chickweed [20]): 3 (weed kill ratio 40% or more, less than 70%); L (redroot pigweed) weedkilling efficacy grade (redroot pigweed [21]): 4 (weed kill ratio 70% or more, less than 90%); I (Italian ryegrass) weedkilling efficacy grade (Italian ryegrass [22]): 5 (weed kill ratio 90% or more, (practically complete withering)); K (Indian mallow) weedkilling efficacy grade (Indian mallow [23]): 0 (weed kill ratio 5% or less (practically no effect)); N (chickweed) weedkilling efficacy grade (chickweed [24]): 0 (weed kill ratio 5% or less (practically no effect)); f (beet) effect on crop grade (beet [25]): 3 (weed kill ratio 40% or more, less than 70%); C (oval-leafed pondweed) weedkilling efficacy grade (oval-leafed pondweed [26]): 5 (weed kill ratio 90% or more, (practically complete withering)); D (crabgrass) weedkilling efficacy grade (crabgrass [27]): 5 (weed kill ratio 90% or more, (practically complete withering)); d (soybean) effect on crop grade (soybean [28]): 0 (weed kill ratio 5% or less (practically no effect)); b (directly sown rice) effect on crop grade (directly sown rice [29]): 2 (weed kill ratio 20% or more, less than 40%); A (barnyard grass) weedkilling efficacy grade (barnyard grass [30]): 5 (weed kill ratio 90% or more, (practically complete withering)); K (Indian mallow) weedkilling efficacy grade (Indian mallow [31]): 3 (weed kill ratio 40% or more, less than 70%); e (wheat) effect on crop grade (wheat [32]): 0 (weed kill ratio 5% or less (practically no effect)); a (transplanted rice) effect on crop grade (transplanted rice): 0 (weed kill ratio 5% or less (practically no effect)); M (fig-leafed goosefoot) weedkilling efficacy grade (fig-leafed goosefoot [33]): 3 (weed kill ratio 40% or more, less than 70%); c (corn) effect on crop grade (corn [34]): 0 (weed kill ratio 5% or less (practically no effect)) |
| CC1=C(c2ccsc2)C(=O)N(C(C)(C)C(=O)Nc2cccc(Cl)n2)CO1 [B-2-05] | 4 (weed kill ratio 70% or more, less than 90%) | 5 (weed kill ratio 90% or more, (practically complete withering)) | 4 (weed kill ratio 70% or more, less than 90%) | 5 (weed kill ratio 90% or more, (practically complete withering)) | 0 (weed kill ratio 5% or less (practically no effect)) | 4 (weed kill ratio 70% or more, less than 90%) | 3 (weed kill ratio 40% or more, less than 70%) | 5 (weed kill ratio 90% or more, (practically complete withering)) | 5 (weed kill ratio 90% or more, (practically complete withering)) | 5 (weed kill ratio 90% or more, (practically complete withering)) | 5 (weed kill ratio 90% or more, (practically complete withering)) | 5 (weed kill ratio 90% or more, (practically complete withering)) | 5 (weed kill ratio 90% or more, (practically complete withering)) | 5 (weed kill ratio 90% or more, (practically complete withering)) | 5 (weed kill ratio 90% or more, (practically complete withering)) | 5 (weed kill ratio 90% or more, (practically complete withering)) | 5 (weed kill ratio 90% or more, (practically complete withering)) | 4 (weed kill ratio 70% or more, less than 90%) | 5 (weed kill ratio 90% or more, (practically complete withering)) | 5 (weed kill ratio 90% or more, (practically complete withering)) | N (chickweed) weedkilling efficacy grade (chickweed [20]): 5 (weed kill ratio 90% or more, (practically complete withering)); L (redroot pigweed) weedkilling efficacy grade (redroot pigweed [21]): 3 (weed kill ratio 40% or more, less than 70%); I (Italian ryegrass) weedkilling efficacy grade (Italian ryegrass [22]): 5 (weed kill ratio 90% or more, (practically complete withering)); K (Indian mallow) weedkilling efficacy grade (Indian mallow [23]): 3 (weed kill ratio 40% or more, less than 70%); N (chickweed) weedkilling efficacy grade (chickweed [24]): 4 (weed kill ratio 70% or more, less than 90%); f (beet) effect on crop grade (beet [25]): 4 (weed kill ratio 70% or more, less than 90%); C (oval-leafed pondweed) weedkilling efficacy grade (oval-leafed pondweed [26]): 5 (weed kill ratio 90% or more, (practically complete withering)); D (crabgrass) weedkilling efficacy grade (crabgrass [27]): 5 (weed kill ratio 90% or more, (practically complete withering)); d (soybean) effect on crop grade (soybean [28]): 0 (weed kill ratio 5% or less (practically no effect)); b (directly sown rice) effect on crop grade (directly sown rice [29]): 3 (weed kill ratio 40% or more, less than 70%); A (barnyard grass) weedkilling efficacy grade (barnyard grass [30]): 5 (weed kill ratio 90% or more, (practically complete withering)); K (Indian mallow) weedkilling efficacy grade (Indian mallow [31]): 1 (weed kill ratio 5% or more, less than 20%); e (wheat) effect on crop grade (wheat [32]): 3 (weed kill ratio 40% or more, less than 70%); a (transplanted rice) effect on crop grade (transplanted rice): 0 (weed kill ratio 5% or less (practically no effect)); M (fig-leafed goosefoot) weedkilling efficacy grade (fig-leafed goosefoot [33]): 4 (weed kill ratio 70% or more, less than 90%); c (corn) effect on crop grade (corn [34]): 0 (weed kill ratio 5% or less (practically no effect)) |
